Earlier results, collected in patent US10174015B2, “Substituted heterocyclic derivative, preparation method and use thereof” (Xiamen University, priority 2014, dated 2019).
pIC50: −log10 of the molar value.

Tests used:
NAAA = NAAA inhibitor, literature value; cited from earlier work
[1] = system: leukocyte migration and inflammatory exudation; settings: topical administration; cited from earlier work

With O=C(CCc1ccccc1)N[C@H]1COC1=O [S-OOPP] as the compound, how does the pIC50 (NAAA) read?
Its pIC50 is 6.38.

And the “effect on leukocyte migration and inflammatory exudation” value [1]?
Its value is “inhibiting leukocyte migration and inflammatory exudation”.
